Source: US20190083482A1, “PRMT5 INHIBITORS AND USES THEREOF” (Epizyme, Inc., priority 2017, published 2019)

Columns and labels:
Z-138 cell line = test: Z-138 Proliferation Assay (Cell Titer Glo); format: cell-based; conditions: Homo sapiens, 120 h; Z-138 cells, 5 days incubation, top concentration 20 μM
Excerpt: Z-138 Proliferation Assay
Z-138 suspension cells were purchased from ATCC (American Type Culture Collection, Manassas, Va.). RPMI/Glutamax medium, penicillin-streptomycin, heat inactivated fetal bovine serum were purchased from Life Technologies, Grand Island, N.Y., USA. V-bottom polypropylene 384-well plates were purchased from Greiner Bio-One, Monroe, N.C., USA. Cell culture 384-well white opaque plates were purchased from Perkin Elmer, Waltham, Mass., USA. Cell-Titer Glo® was purchased from Promega Corporation, Madison, Wis., USA. SpectraMax M5 plate reader was purchased from Molecular Devices LLC, Sunnyvale, Calif., USA.
Z-138 suspension cells were maintained in growth medium (RPMI 1640 supplemented with 10% v/v heat inactivated fetal bovine serum and cultured at 37° C. under 5% CO2. Under assay conditions, cells were incubated in assay medium (RPMI 1640 supplemented with 10% v/v heat inactivated fetal bovine serum and 100 units/mL penicillin-streptomycin) at 37° C. under 5% CO2.
For the assessment of the effect of compounds on the proliferation of the Z-138 cell line, exponentially growing cells were plated in 384-well white opaque plates at a density of 10,000 cells/ml in a final volume of 50 μl of assay medium. A compound source plate was prepared by performing triplicate nine-point 3-fold serial dilutions in DMSO, beginning at 10 mM (final top concentration of compound in the assay was 20 μM and the DMSO was 0.2%). A 100 nL aliquot from the compound stock plate was added to its respective well in the cell plate. […] After addition of compounds, assay plates were incubated for 5 days at 37° C., 5% CO2, relative humidity >90%. Cell viability was measured by quantitation of ATP present in the cell cultures, adding 35 μl of Cell Titer Glo® reagent to the cell plates. Luminescence was read in the SpectraMax M5 microplate reader. The concentration of compound inhibiting cell viability by 50% was determined using a 4-parametric fit of the normalized dose response curves.

[1] = test system: symmetric di-methyl arginine in Z-138 cells; test: Z-138 Methylation Assay (In Cell Western for symmetric di-methyl arginine); format: cell-based; conditions: Homo sapiens, 96 hours incubation, read-out: ICW EC50
Excerpt: Z-138 suspension cells were purchased from ATCC (American Type Culture Collection, Manassas, Va.). RPMI/Glutamax medium, penicillin-streptomycin, heat inactivated fetal bovine serum, and D-PBS were purchased from Life Technologies, Grand Island, N.Y., USA. Odyssey blocking buffer, 800 CW goat anti-rabbit IgG (H+L) antibody, and Licor Odyssey infrared scanner were purchased from Licor Biosciences, Lincoln, Nebr., USA. Symmetric di-methyl arginine antibody was purchased from EMD Millipore, Billerica, Mass., USA. 16% Paraformaldehyde was purchased from Electron Microscopy Sciences, Hatfield, Pa., USA.
Z-138 suspension cells were maintained in growth medium (RPMI 1640 supplemented with 10% v/v heat inactivated fetal bovine serum and 100 units/mL penicillin-streptomycin) and cultured at 37° C. under 5% CO2.
Cell Treatment, in Cell Western (ICW) for Detection of Symmetric Di-Methyl Arginine and DNA Content.
Z-138 cells were seeded in assay medium at a concentration of 50,000 cells per mL to a 384-well cell culture plate with 50 μL per well. Compound (100 nL) from 384 well source plates was added directly to 384 well cell plate. Plates were incubated at 37° C., 5% CO2 for 96 hours. After four days of incubation, 40 μL of cells from incubated plates were added to poly-D-lysine coated 384 well culture plates (BD Biosciences 356697). Plates were incubated at room temperature for 30 minutes then incubated at 37° C., 5% CO2 for 5 hours. After the incubation, 40 μL per well of 8% paraformaldehyde in PBS (16% paraformaldahyde was diluted to 8% in PBS) was added to each plate and incubated for 30 minutes. Plates were transferred to a Biotek 405 plate washer and washed 5 times with 100 μL per well of wash buffer (1×PBS with 0.1% Triton X-100 (v/v)). Next 30 μL per well of Odyssey blocking buffer were added to each plate and incubated 1 hour at room temperature. Blocking buffer was removed and 20 μL per well of primary antibody was added (symmetric di-methyl arginine diluted 1:100 in Odyssey buffer with 0.1% Tween 20 (v/v)) and plates were incubated overnight (16 hours) at 4° C. Plates were washed 5 times with 100 μL per well of wash buffer. Next 20 μL per well of secondary antibody was added (1:200 800 CW goat anti-rabbit IgG (H+L) antibody, 1:1000 DRAQ5 (Biostatus limited) in Odyssey buffer with 0.1% Tween 20 (v/v)) and incubated for 1 hour at room temperature. The plates were washed 5 times with 100 μL per well wash buffer then 1 time with 100 μL per well of water. Plates were allowed to dry at room temperature then imaged on the Licor Odyssey machine which measures integrated intensity at 700 nm and 800 nm wavelengths. Both 700 and 800 channels were scanned.
First, the ratio for each well was determined by:
Each plate included fourteen control wells of DMSO only treatment (minimum inhibition) as well as fourteen control wells for maximum inhibition treated with 3 μM of a reference compound (Background wells). The average of the ratio values for each control type was calculated and used to determine the percent inhibition for each test well in the plate. Reference compound was serially diluted three-fold in DMSO for a total of nine test concentrations, beginning at 3 μM. Percent inhibition was determined and IC50 curves were generated using triplicate wells per concentration of compound.

PRMT5/MEP50 = biological target: T1, PRMT5/MEP50 (Homo sapiens, UniProt O14744); test: PRMT5 Biochemical Assay (PRMT5/MEP50 enzyme assay on peptide substrate, 3H-SAM Flashplate); conditions: PRMT5/MEP50 4 nM, 3H-SAM 75 nM, peptide 40 nM
T1 construct: Flag-PRMT5; made in house; host or cells: Spodoptera frugiperda (SF9) insect cells, baculovirus
Excerpt: S-adenosylmethionine (SAM), S-adenosylhomocysteine (SAH), bicine, KCl, Tween20, dimethylsulfoxide (DMSO), bovine skin gelatin (BSG), and Tris(2-carboxyethyl)phosphine hydrochloride solution (TCEP) were purchased from Sigma-Aldrich at the highest level of purity possible. ^3H-SAM was purchase from American Radiolabeled Chemicals with a specific activity of 80 C1/mmol. 384-well streptavidin Flashplates were purchased from PerkinElmer.
Peptide representative of human histone H4 residues 1-15 was synthesized with a C-terminal linker-affinity tag motif and a C-terminal amide cap by 21st Century Biochemicals.
The amplified genes were sublconed into pENTR/D/TEV (Life Technologies) and subsequently transferred by Gateway™ attL×attR recombination to pDEST8 baculvirus expression vector (Life Technologies).
Protein over-expression was accomplished by infecting exponentially growing Spodoptera frugiperda (SF9) cell culture at 1.2×10^6 cell/ml with a 5000 fold dilution of BIIC stock. Infections were carried out at 27° C. for 72 hours, harvested by centrifugation, and stored at −80° C. for purification.
Flag-PRMT5/6His-MeP50 was eluted with 300 mM Imidazole in the same buffer.
General Procedure for PRMT5/MEP50 Enzyme Assays on Peptide Substrates.
The assays were all performed in a buffer consisting of 20 mM Bicine (pH=7.6), 1 mM TCEP, 0.005% BSG, and 0.002% Tween20, prepared on the day of use. […] DMSO (1 ul) was added to Columns 11, 12, 23, 24, rows A-H for the maximum signal control and 1 ul of SAH, a known product and inhibitor of PRMT5/MEP50, was added to columns 11, 12, 23, 24, rows I-P for the minimum signal control. A cocktail (40 ul) containing the PRMT5/MEP50 enzyme and the peptide was added by Multidrop Combi (Thermo-Fisher). The compounds were allowed to incubate with PRMT5/MEP50 for 30 min at 25 degrees Celsius, then a cocktail (10 ul) containing ^3H-SAM was added to initiate the reaction (final volume=51 ul). […] The assays were stopped by the addition of non-radioactive SAM (10 ul) to a final concentration of 600 uM, which dilutes the ^3H-SAM to a level where its incorporation into the peptide substrate is no longer detectable. 50 ul of the reaction in the 384-well polypropylene plate was then transferred to a 384-well Flashplate and the biotinylated peptides were allowed to bind to the streptavidin surface for at least 1 hour before being washed three times with 0.1% Tween20 in a Biotek ELx405 plate washer. The plates were then read in a PerkinElmer TopCount plate reader to measure the quantity of ^3H-labeled peptide bound to the Flashplate surface, measured as disintegrations per minute (dpm) or alternatively, referred to as counts per minute (cpm).
Where dpm=disintegrations per minute, cmpd=signal in assay well, and min and max are the respective minimum and maximum signal controls.
Where top and bottom are the normally allowed to float, but may be fixed at 100 or 0 respectively in a 3-parameter fit. The Hill Coefficient normally allowed to float but may also be fixed at 1 in a 3-parameter fit. Y is the % inhibition and X is the compound concentration.

T1 sequence (O14744 with tags, fused parts or gaps): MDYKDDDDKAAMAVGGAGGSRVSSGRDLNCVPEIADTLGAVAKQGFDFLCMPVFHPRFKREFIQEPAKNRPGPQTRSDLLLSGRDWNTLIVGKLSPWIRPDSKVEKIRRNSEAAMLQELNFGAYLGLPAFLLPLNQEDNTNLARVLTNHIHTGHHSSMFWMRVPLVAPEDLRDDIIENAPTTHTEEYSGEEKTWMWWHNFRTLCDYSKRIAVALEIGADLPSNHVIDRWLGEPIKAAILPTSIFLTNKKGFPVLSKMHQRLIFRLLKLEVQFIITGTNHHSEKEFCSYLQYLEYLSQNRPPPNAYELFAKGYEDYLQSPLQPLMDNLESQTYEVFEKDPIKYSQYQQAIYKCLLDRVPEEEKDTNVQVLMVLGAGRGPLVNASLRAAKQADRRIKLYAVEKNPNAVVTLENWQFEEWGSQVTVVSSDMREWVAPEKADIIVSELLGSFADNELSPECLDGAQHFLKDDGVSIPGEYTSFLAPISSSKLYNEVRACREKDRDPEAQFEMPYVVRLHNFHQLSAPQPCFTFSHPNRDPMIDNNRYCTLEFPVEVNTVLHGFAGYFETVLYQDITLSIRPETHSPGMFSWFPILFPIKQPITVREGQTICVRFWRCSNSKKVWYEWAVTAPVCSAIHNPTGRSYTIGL
T1 sequence (Q9BQA1 with tags, fused parts or gaps partner limits assumed): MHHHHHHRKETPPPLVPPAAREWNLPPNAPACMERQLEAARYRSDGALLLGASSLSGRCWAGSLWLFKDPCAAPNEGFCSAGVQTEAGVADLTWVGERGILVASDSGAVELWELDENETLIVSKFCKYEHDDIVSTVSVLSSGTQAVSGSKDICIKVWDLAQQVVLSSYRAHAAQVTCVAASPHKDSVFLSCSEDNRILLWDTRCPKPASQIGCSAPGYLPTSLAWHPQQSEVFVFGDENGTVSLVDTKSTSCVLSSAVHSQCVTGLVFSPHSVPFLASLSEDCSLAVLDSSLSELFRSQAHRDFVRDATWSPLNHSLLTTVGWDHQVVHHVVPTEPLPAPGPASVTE

Row | Structure (SMILES) | EC50 (Z-138 cell line) | EC50 [1] | IC50 (PRMT5/MEP50)
1 | O=C(CC1Cc2ccccc2C1)NC[C@H](O)CN1CCc2ccccc2C1 [Compound 179] | 10000 to 50000 nM | 101 to 1000 nM | 
2 | Cn1ncc2ccc(OCC(=O)NCC(O)CN3CCc4ccccc4C3)cc21 (stereo not shown) [Compound 23, N-(3-(3,4-dihydroisoquinolin-2(1H)-yl)-2-hydroxypropyl)-2-((1-methyl-1H-indazol-6-yl)oxy)acetamide] | 1000 to 10000 nM |  | 
3 | O=C(CCc1nc2ccccc2[nH]1)NC[C@H](O)CN1CCc2ccccc2C1 [Compound 175, (S)-3-(1H-benzo[d]imidazol-2-yl)-N-(3-(3,4-dihydroisoquinolin-2(1H)-yl)-2-hydroxypropyl)propanamide] | 101 to 1000 nM | < 100 nM | < 100 nM
4 | O=C(NC[C@H](O)CN1CCc2ccccc2C1)C1CNc2ccccc21 (stereo partly shown) [Compound 177] | 10000 to 50000 nM | 101 to 1000 nM | 
5 | CN(c1ccccc1OCC(=O)NCC(O)CN1CCc2ccccc2C1)S(C)(=O)=O (stereo not shown) [Compound 155] | 1000 to 10000 nM | < 100 nM | < 100 nM
6 | Nc1ncnc2c(OCC(=O)NCC(O)CN3CCc4ccccc4C3)cccc12 (stereo not shown) [Compound 168] | 1000 to 10000 nM | < 100 nM | < 100 nM
7 | O=C(CC1CCc2ccccc21)NC[C@H](O)CN1CCc2ccccc2C1 (stereo partly shown) [Compound 178] | 1000 to 10000 nM | 101 to 1000 nM | 
8 | O=C(COc1cncc(C(=O)N2CCOCC2)c1)NCC(O)CN1CCc2ccccc2C1 (stereo not shown) [Compound 161] | > 20000 nM | 1000 to 10000 nM | 
9 | Cc1cn(C)c2cccc(OCC(=O)NC[C@H](O)CN3CCc4ccccc4C3)c12 [Compound 163] | 1000 to 10000 nM | 101 to 1000 nM | < 100 nM
10 | Cn1ncc2ccc(OCC(=O)NC[C@@H](O)CN3CCc4ccccc4C3)cc21 [Compound 160] | > 20000 nM | 1000 to 10000 nM | 
11 | CC(=O)Nc1ccncc1OCC(=O)NCC(O)CN1CCc2ccccc2C1 (stereo not shown) [Compound 162] | > 20000 nM | 1000 to 10000 nM | 
12 | Cc1cn(C)c2cccc(OCC(=O)NC[C@@H](O)CN3CCc4ccccc4C3)c12 [Compound 164] | 101 to 1000 nM | < 100 nM | < 100 nM
13 | O=C(Cc1c[nH]c2ccccc12)NC[C@H](O)CN1CCc2ccccc2C1 [Compound 182] |  | 101 to 1000 nM | 
14 | O=C(NC[C@H](O)CN1CCc2ccccc2C1)C1COc2ccccc2O1 (stereo partly shown) [Compound 183] |  | 101 to 1000 nM | 
15 | Cn1ncc2ccc(OCC(=O)NC[C@H](O)CN3CCc4ccccc4C3)cc21 [Compound 159] | 1000 to 10000 nM | < 100 nM | < 100 nM
16 | O=C(COc1cccc2cncnc12)NCC(O)CN1CCc2ccccc2C1 (stereo not shown) [Compound 181] |  | < 100 nM | < 100 nM
17 | O=C(Cc1ccc2c(c1)OCO2)NC[C@H](O)CN1CCc2ccccc2C1 [Compound 174] | > 20000 nM | 101 to 1000 nM | 
18 | CN(C)c1cccc(OCC(=O)NCC(O)CN2CCc3ccccc3C2)c1S(N)(=O)=O (stereo not shown) [Compound 169] | 1000 to 10000 nM | < 100 nM | < 100 nM
19 | Cn1cnc(-c2ccccc2OCC(=O)NCC(O)CN2CCc3ccccc3C2)c1 (stereo not shown) [Compound 153] | 10000 to 50000 nM | 101 to 1000 nM | < 100 nM
20 | CC(NC(=O)COc1ccccc1S(N)(=O)=O)C(O)CN1CCc2ccccc2C1 (stereo not shown) [Compound 170] | 10000 to 50000 nM | 101 to 1000 nM | < 100 nM
21 | Cc1nn(C)c2cccc(OCC(=O)NCC(O)CN3CCc4ccccc4C3)c12 (stereo not shown) [Compound 158] | 1000 to 10000 nM | 101 to 1000 nM | < 100 nM
22 | CN(C)CCN(C)S(=O)(=O)c1ccccc1OCC(=O)NC[C@@H](O)CN1CCc2ccccc2C1 [Compound 191] |  |  | < 100 nM
23 | O=C(COc1cncc(CN2CCOCC2)c1)NCC(O)CN1CCc2ccccc2C1 (stereo not shown) [Compound 172] | 10000 to 50000 nM | 101 to 1000 nM | 
24 | CN1CCN(c2cccc(OCC(=O)NC[C@@H](O)CN3CCc4ccccc4C3)c2)CC1 [Compound 190] |  |  | < 100 nM
25 | O=C(NCC(O)CN1CCc2ccccc2C1)C(O)c1ccccc1 (stereo not shown) [Compound 165] | > 20000 nM | 101 to 1000 nM | 
